In patent publication US10919896B2, “Preparation and uses of pyrimidinone derivatives” (Cancer Research Technology Limited, priority 2016, dated 2021):

Assays:
Cdc7/Dbf4 = Cdc7/Dbf4 (Homo sapiens, UniProt O00311); assay: Cdc7 Biochemical Assay Method 3: Cdc7/Dbf4 Enzyme TR-FRET Assay measuring pS40MCM2; details: 1 μM ATP, read-out: Biochemical Method 3 (pIC50) (converted)
Method in brief: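 TR-FRET read-out (terbium anti-rabbit donor, streptavidin-Alexa Fluor488 acceptor, anti-Mcm2 pS40 antibody) of peptide phosphorylation after 120 min at 25° C; reaction held 1 μM ATP, 100 nM biotin-tagged peptide substrate and 2.5 nM enzyme complex.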

[1] = tested on: Cdc7 (pS53MCM2 levels in SW48 cells); assay: Cdc7 Cell Pharmacodynamics Assay Method 3: pS53MCM2 levels in SW48 cells, 6 hours; assay type: cell-based; details: Homo sapiens, SW48, 6 h, read-out: Biomarker Method 3 (pEC50) (converted)
Excerpt: This protocol describes a method to investigate the inhibition of Cdc7 activity by measuring pS53MCM2 levels in cells, after treatment with compounds.
• SW48 cells • RPMI 1640 (Sigma, R5886) • 10% FCS (Sera Laboratories International Ltd, EU000F Batch:108005) • 100× L-Glutamine (Invitrogen, 25030-024) • D-Glucose Solution (10%) (Sigma, G8644) • HEPES Buffer Solution (Sigma, 83264) • Sodium Pyruvate (Sigma, S8636) • PBS (Fisger, BP399-4) • Trypsin/EDTA (Invitrogen 25300-054) • 2% BSA in PBS • Cell Extraction Buffer (Invitrogen FNN0011) • Protease inhibitor cocktail (Sigma P-2714) • PMSF 0.3M stock in DMSO (Sigma P7626) • Antibody-rabbit pMCM2 Ser53 (Bethyl #A300-756A) • Antibody-goat MCM2 (Bethyl #A300-122A) • Antibody-goat Anti Rabbit IgG HRP (Perbio Science UK Ltd 31462) • SuperSignal ELISA Pico Chemiluminescent Substrate (Perbio Science UK Ltd 37070) Method • Plate 30,000 SW48 cells per well in standard TC treated 96 well plate in 100 μL complete RPMI 1640 medium. • Allow cells to settle overnight in incubator set at 37° C. and 5% CO2. • Cell treatment: prepare a 384 well plate containing 80 μl PBS/well. The PBS should be at room temperature—to be referred to as intermediate plate. Transfer 2 μL of compound from mother plate to intermediate (daughter plate) 1:40 dilution, then 5 μL intermediate to cell (daughter) plate. • Once all cells are treated place the cells back to the incubator and incubate for 6 hours. • Dilute the capture antibody (total MCM2#A300-122A) 1 in 250 in the required volume of PBS (5 mL per assay plate, plus 5 mL for dead volume) and add 50 μL to each well of a Hybond plate. Seal the plate and incubate at room temperature for a minimum of 2 hours. • Defrost aliquot of Invitrogen Cell Extraction Buffer (FNN0011) on ice and supplement with appropriate volume of both Sigma protease inhibitor cocktail (P-2714) and PMSF (final conc 1 mM from a 1 M stock in DMSO). • After the 6 hour cell treatment time, tap out the media from the assay plates and place them in the −80° C. freezer for at least 5 minutes. • Remove plates from freezer and add 20 μL of ice cold complete lysis buffer, with the multidrop. Incubate cells for 30 minutes at 4° C. • Add 80 μL per well 2% BSA. • Flick out the remaining liquid from the capture plate and transfer 80 μL from the lysis plate to the same wells in the capture/ELISA plate, using the Biomek. Cover with plate seal and incubate plates overnight at 4° C. • Wash plates with PBS, remove any residual remaining liquid and add 50 μL per well of pMCM2 Ser53 antibody (#A300-756A) diluted 1 in 100 in 2% BSA. Cover plate and incubate at room temperature for 2 hours with gentle shaking. • Wash plates with PBS, remove any residual remaining liquid and Incubate with 50 μL goat anti rabbit antibody (1 in 800 dilution in 2% BSA), for 1 hour at room temperature. • Wash plates with PBS, remove any residual remaining liquid and add 50 μL mixed SuperSignal Pico substrate. • Incubate each plate for 5 minutes at room temperature shielding the plates from direct light (with a cover plate). Read plates with the luminescent detection.

[2] = tested on: Cdc7 (pS40MCM2 levels in HCT116 cells); assay: Cdc7 Cell Pharmacodynamics Assay Method 2B: pS40MCM2 levels in HCT116 cells, 18 hours; assay type: cell-based; details: Homo sapiens, HCT-116, read-out: Biomarker Method 2B (pEC50) (converted)
Excerpt: This protocol describes a method to investigate the inhibition of Cdc7 activity by measuring pS40MCM2 levels in cells, after treatment with compounds.
• HCT116 cells (ATCC, #CCL-247) • McCoys 5A with L-glutamine (Cellgro, #10-050-CV) • 10% FCS (Cellgro, #35-010-CV) • D-PBS without CaCl2 and MgCl2 (Cellgro, #21-031-CV) • Trypsin/EDTA (Cellgro, #25-052-CL) • BSA (Calbiochem, 126593) • Cell Extraction Buffer (Invitrogen FNN0011) • Protease inhibitor cocktail (Sigma P-2714) • PMSF 0.3M stock in DMSO (Sigma P7626) • Antibody-rabbit pMCM2 Ser40 (Abcam, AB133243) • Antibody-goat MCM2 (Bethyl #A300-122A) • Antibody-goat Anti Rabbit IgG HRP (Thermo, 31462) • SuperSignal ELISA Pico Chemiluminescent Substrate (Perbio Science UK Ltd 37069) • 10×PBS (Growcells, MRGF-6236) • Triton X100 (Sigma, P-T8787) • DMSO (Fisher, D128-1) • 2-Propanol (J. T. Baker, 9095-03) Method • Seed 1×10^6 HCT116 cells into each of two 175 cm^2 flask containing 30 mL Cell Growth Media and incubate at 37° C., 5% CO2 for 3 days. • Harvest the cells from one T175 cm^2 flask and count. • Dilute with Cell Growth Media to a cell density of 2×10^5. Dispense 100 μL to each well (20,000 HCT116 cells/well) of TC treated 96-well plate(s). • Allow cells to settle overnight in incubator set at 37° C. and 5% CO2. • Cell treatment: Transfer 0.25 μL/well from the compound plate to the wells of the cell plate(s). This is a 1:400 dilution of compound in the assay. • Once all cells are treated place the cells back to the incubator and incubate for either 6 hours (Method 2A) or 18 hours (Method 2B). • Dilute the capture antibody (total MCM2#A300-122A) 1 in 250 in the required volume of PBS (5 mL per assay plate, plus 5 mL for dead volume) and add 50 μL to each well of a Hybond plate except wells A12 & B12. Seal the plate and incubate at room temperature for a minimum of 2 hours. • Defrost aliquot of Invitrogen Cell Extraction Buffer (FNN0011) on ice and supplement with appropriate volume of both Sigma protease inhibitor cocktail (P-2714) and PMSF (final conc 1 mM from a 1 M stock in DMSO). • After the 6 hour or 18 hour cell treatment time, tap out the media from the assay plates and place them in the −70° C. freezer for at least 5 minutes. • Flick out the remaining liquid in the previously prepared capture Ab plate(s) and add 200 μL 2% BSA per well. Incubate for 1 hour at room temperature. • Remove plates from freezer and add 20 μL of ice cold complete lysis buffer. Incubate cells for 30 minutes at 4° C. • Add 30 μL per well 2% BSA • At the end of the 1 hour incubation, wash the Capture/ELISA plate(s) with Wash Buffer on the BioTek plate washer. • Transfer 40 μL per well of the lysis plate(s) to the same wells in the Capture/ELISA plate. Incubate cells overnight at 4° C. • At the end of the overnight incubation, wash the ELISA plate(s) with Wash Buffer on BioTek plate washer. • Prepare Detection Antibody Buffer and dispense 50 μL to all wells of ELISA plate(s) except wells G1 & H1. Cover plate and incubate at room temperature for 2 hours with gentle shaking. • At the end of the 2 hour incubation, wash the ELISA plate(s) with Wash Buffer on the BioTek plate washer. • Prepare the Conjugated Antibody Buffer and dispense 50 μL to all wells of ELISA plate(s). • Cover the plate and incubate at room temperature for 1 hour with gentle shaking. • At the end of the 1 hour incubation, wash the ELISA plate(s) with Wash Buffer on the BioTek plate washer. • Prepare Substrate Buffer and dispense 50 μL to all wells of ELISA plate(s). • Incubate for a minimum of 10 minutes and read plates on the EnVision 2100 Multilabel Reader (Mirror: Luminescence (404) & Luminescence 700 (212); Measurement Height: 6.5 mm; Measurement Time: 0.2 s). Method 3

Sequence of Cdc7/Dbf4 (O00311 whole entry): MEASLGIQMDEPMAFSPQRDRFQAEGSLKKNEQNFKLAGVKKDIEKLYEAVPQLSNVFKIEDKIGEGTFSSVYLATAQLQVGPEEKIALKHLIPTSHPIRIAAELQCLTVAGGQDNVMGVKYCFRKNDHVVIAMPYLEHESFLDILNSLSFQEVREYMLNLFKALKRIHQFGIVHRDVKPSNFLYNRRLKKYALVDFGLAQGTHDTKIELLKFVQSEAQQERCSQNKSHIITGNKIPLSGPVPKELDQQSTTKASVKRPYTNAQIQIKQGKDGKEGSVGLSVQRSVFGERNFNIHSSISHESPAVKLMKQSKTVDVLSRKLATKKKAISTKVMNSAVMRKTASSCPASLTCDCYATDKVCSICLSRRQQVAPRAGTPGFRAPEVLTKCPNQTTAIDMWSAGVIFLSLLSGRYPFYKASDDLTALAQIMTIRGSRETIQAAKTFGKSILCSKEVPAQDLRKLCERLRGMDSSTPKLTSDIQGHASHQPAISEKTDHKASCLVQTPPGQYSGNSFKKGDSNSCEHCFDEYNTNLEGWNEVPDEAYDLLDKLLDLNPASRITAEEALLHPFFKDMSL
Sequence of Cdc7/Dbf4 (Q9UBU7 whole entry partner): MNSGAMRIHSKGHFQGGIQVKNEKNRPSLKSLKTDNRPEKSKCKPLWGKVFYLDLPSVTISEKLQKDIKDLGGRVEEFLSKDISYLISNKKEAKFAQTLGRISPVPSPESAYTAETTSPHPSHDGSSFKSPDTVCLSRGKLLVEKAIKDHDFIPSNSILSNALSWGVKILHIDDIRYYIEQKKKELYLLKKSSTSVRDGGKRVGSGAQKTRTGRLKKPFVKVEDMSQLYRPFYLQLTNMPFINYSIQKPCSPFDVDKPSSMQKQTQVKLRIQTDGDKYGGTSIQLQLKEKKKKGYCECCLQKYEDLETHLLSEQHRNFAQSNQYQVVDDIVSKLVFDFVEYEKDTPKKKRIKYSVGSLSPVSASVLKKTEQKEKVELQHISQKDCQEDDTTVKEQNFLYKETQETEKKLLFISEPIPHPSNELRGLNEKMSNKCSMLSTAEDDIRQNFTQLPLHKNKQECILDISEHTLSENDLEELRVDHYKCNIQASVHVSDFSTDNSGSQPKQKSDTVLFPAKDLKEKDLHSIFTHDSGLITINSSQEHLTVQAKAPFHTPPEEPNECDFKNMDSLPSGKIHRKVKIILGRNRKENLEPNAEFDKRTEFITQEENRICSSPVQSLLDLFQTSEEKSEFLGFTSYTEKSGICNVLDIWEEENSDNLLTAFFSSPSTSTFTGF

Row | IC50 (Cdc7/Dbf4) [nM] | EC50 [1] [nM] | EC50 [2] [nM] | SMILES
1 | 5.89 | 2090 | 437 | C[C@H]1CN[C@@H](C(F)(F)F)CN1c1nc(-c2ccnc(F)c2)[nH]c(=O)c1Cl (racemic) [Compound 378, Cis-5-chloro-2-(2-fluoro-4-pyridyl)-4-[2-methyl-5-(trifluoromethyl)piperazin-1-yl]-1H-pyrimidin-6-one]
2 | 0.0977 | 562 | 39.8 | O=c1[nH]c(-c2ccnc(F)c2)nc(N2CCCNCC2)c1Cl [Compound 206]
3 | 0.724 | 1320 | 57.5 | C[C@@H]1CCCN1c1nc(-c2ccnc(F)c2)[nH]c(=O)c1Cl [Compound 279]
4 | 2.63 | – | 234 | CO[C@@H]1CCCN(c2nc(-c3ccnc(F)c3)[nH]c(=O)c2Cl)C1 [Compound 282]
5 | 2.09 | – | 389 | O=c1[nH]c(-c2ccnc(F)c2)nc(N2CCC3(COC3)C2)c1Cl [Compound 284]
6 | 0.229 | 513 | 15.5 | O=c1[nH]c(-c2ccnc(F)c2)nc(N2CCOCC(F)(F)C2)c1Cl [Compound 286]
7 | 7.59 | – | 1020 | O=c1[nH]c(-c2ccnc(F)c2)nc(N2CCNC(C(F)(F)F)CC2)c1Cl (centres unmarked) [Compound 296]
8 | 3.24 | – | 912 | CC1(C)CN(c2nc(-c3ccnc(F)c3)[nH]c(=O)c2Cl)CCN1 [Compound 297]
9 | 4.07 | – | 331 | CN1CCCN(c2nc(-c3ccnc(F)c3)[nH]c(=O)c2Cl)CC1 [Compound 298]
10 | 3.02 | – | 115 | CC1(C)CN(c2nc(-c3ccnc(F)c3)[nH]c(=O)c2Cl)CCO1 [Compound 300]
11 | 10.5 | – | 1910 | CC1(C)CN(c2nc(-c3ccnc(F)c3)[nH]c(=O)c2Cl)CCCO1 [Compound 301]
12 | 2.09 | – | 126 | CC1CCN(c2nc(-c3ccnc(F)c3)[nH]c(=O)c2Cl)CCN1 (centres unmarked) [Compound 303]
13 | 1.38 | – | 214 | CC1(F)CNCCN(c2nc(-c3ccnc(F)c3)[nH]c(=O)c2Cl)C1 (centres unmarked) [Compound 304]
14 | 1.29 | – | 174 | N#CC[C@H]1CN(c2nc(-c3ccnc(F)c3)[nH]c(=O)c2Cl)CCN1 [Compound 306]
15 | 1.1 | – | 457 | CC[C@@H]1COCCN1c1nc(-c2ccnc(F)c2)[nH]c(=O)c1Cl [Compound 335]
16 | 1.12 | – | 372 | C[C@@H]1CN(c2nc(-c3ccnc(F)c3)[nH]c(=O)c2Cl)CCO1 [Compound 337]
17 | 0.708 | – | 178 | O=c1[nH]c(-c2ccnc(F)c2)nc(N2CCCOCC2)c1Cl [Compound 338]
18 | 2.51 | – | 174 | CC1CN(c2nc(-c3ccnc(F)c3)[nH]c(=O)c2Cl)C(C)CO1 (centres unmarked) [Compound 340]
19 | 1.29 | – | 1740 | N#C[C@@H]1CNCCN1c1nc(-c2ccnc(F)c2)[nH]c(=O)c1Cl [Compound 345]
20 | 3.63 | – | 316 | O=c1[nH]c(-c2ccnc(F)c2)nc(N2CCN3CC(F)(F)C[C@H]3C2)c1Cl [Compound 347]
21 | 2.19 | – | 155 | O=c1[nH]c(-c2ccnc(F)c2)nc(N2CCN(CC(F)F)CC2)c1Cl [Compound 350]
22 | 1.35 | – | 138 | CC1CCNCCN1c1nc(-c2ccnc(F)c2)[nH]c(=O)c1Cl (centres unmarked) [Compound 351]
23 | 3.63 | – | 437 | C[C@@H]1CNCCCN1c1nc(-c2ccnc(F)c2)[nH]c(=O)c1Cl [Compound 352]
24 | 2.69 | – | 288 | CC1COCCCN1c1nc(-c2ccnc(F)c2)[nH]c(=O)c1Cl (centres unmarked) [Compound 355]
25 | 2.09 | – | 200 | C[C@@H]1CN(c2nc(-c3ccnc(F)c3)[nH]c(=O)c2Cl)[C@H](C)CO1 [Compound 357]
26 | 2 | – | 27.5 | CC1OCCN(c2nc(-c3ccnc(F)c3)[nH]c(=O)c2Cl)C1C (centres unmarked) [Compound 359]
27 | 1.38 | – | 309 | O=c1[nH]c(-c2ccncc2)nc(N2CC(F)(F)OC(F)(F)C2)c1Cl [Compound 413, 5-chloro-2-(4-pyridyl)-4-(2,2,6,6-tetrafluoromorpholin-4-yl)-1H-pyrimidin-6-one]

Row | SMILES | IC50 (Cdc7/Dbf4) [nM] | EC50 [1] [nM] | EC50 [2] [nM]
28 | O=c1[nH]c(-c2ccnc(F)c2)nc(N2C3CCC2CNC3)c1Cl [Compound 262] | 0.851 | 347 | 19.5
29 | O=c1[nH]c(-c2ccnc(F)c2)nc(N2CCN3CCC2CC3)c1Cl [Compound 293] | 0.363 | – | 29.5
30 | O=c1[nH]c(-c2ccnc(F)c2)nc(N2CCN3CCC[C@H]3C2)c1Cl [Compound 348] | 1.95 | – | 257
